From ChEMBL document CHEMBL3351290, “Structural studies provide clues for analog design of specific inhibitors of Cryptosporidium hominis thymidylate synthase-dihydrofolate reductase” (Bioorg Med Chem Lett, 2014)

Experiments:
Dihydrofolate reductase = molecular target: T1, Dihydrofolate reductase (Homo sapiens, UniProt P00374); assay: Inhibition of human DHFR
T1 sequence (P00374 whole entry): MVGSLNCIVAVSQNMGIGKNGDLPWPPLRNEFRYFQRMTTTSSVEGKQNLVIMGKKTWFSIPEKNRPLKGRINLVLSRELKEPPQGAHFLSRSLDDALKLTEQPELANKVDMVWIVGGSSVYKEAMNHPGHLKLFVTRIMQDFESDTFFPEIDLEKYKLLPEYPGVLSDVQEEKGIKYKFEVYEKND

[1] = Toxicity in Cryptosporidium hominis Iowa sporozoites infected human HCT8 cells assessed as effect on cell morphology by microscopy; assay type: cell-based; conditions: hct-8
Cryptosporidium hominis [2] = assay: Antiparasitic activity against compound pre-treated Cryptosporidium hominis Iowa sporozoites infected in human HCT8 cells assessed as reduction in parasite infection; assay type: functional, organism-based; conditions: HCT-8
Thymidylate synthase = Thymidylate synthase (Homo sapiens, UniProt P04818); assay: Inhibition of human thymidylate synthase
[3] = Toxicity in Cryptosporidium hominis Iowa sporozoites infected human HCT8 cells assessed as effect on RNA levels; assay type: cell-based; conditions: hct-8
[4] = Toxicity in Cryptosporidium hominis Iowa sporozoites infected human HCT8 cells assessed as effect on cell viability by microscopy; assay type: cell-based; conditions: hct-8
Cryptosporidium hominis [5] = assay: Antiparasitic activity against Cryptosporidium hominis Iowa intracellular forms infected in human HCT8 cells assessed as reduction in parasite infection dosed 2 hrs after parasite infection; assay type: functional, organism-based; conditions: HCT-8, 2 h

Chain of Thymidylate synthase (P04818 whole entry): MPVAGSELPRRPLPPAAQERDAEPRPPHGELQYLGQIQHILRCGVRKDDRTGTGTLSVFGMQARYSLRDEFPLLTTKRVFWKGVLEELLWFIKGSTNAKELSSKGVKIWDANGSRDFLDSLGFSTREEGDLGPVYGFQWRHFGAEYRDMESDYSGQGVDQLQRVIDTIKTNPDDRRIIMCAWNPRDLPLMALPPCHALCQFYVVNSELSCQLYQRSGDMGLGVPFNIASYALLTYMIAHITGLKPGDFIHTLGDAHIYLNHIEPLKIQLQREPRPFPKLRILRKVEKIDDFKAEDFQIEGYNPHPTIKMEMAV

Nc1nc2[nH]cc(Cc3ccc(C(=O)N[C@@H](CCC(=O)O)C(=O)O)cc3)c2c(=O)[nH]1
IC50 (Dihydrofolate reductase): 640 nM | Activity [1]: Non-toxic | EC50 (Cryptosporidium hominis [2]): 1000 nM | IC50 (Thymidylate synthase): 1800 nM | Activity [3]: Non-toxic | Activity [4]: Non-toxic | EC50 (Cryptosporidium hominis [5]): 1000 nM
